{"source": "patent US20090131459A1", "about": "“2-Thioxanthine Derivatives Acting as MPO-Inhibitors” (ASTRAZENECA AB, priority 2006, published 2009)", "target": "T1, human MPO (Homo sapiens, UniProt P05164)", "T1 sequence (P05164 49-745)": "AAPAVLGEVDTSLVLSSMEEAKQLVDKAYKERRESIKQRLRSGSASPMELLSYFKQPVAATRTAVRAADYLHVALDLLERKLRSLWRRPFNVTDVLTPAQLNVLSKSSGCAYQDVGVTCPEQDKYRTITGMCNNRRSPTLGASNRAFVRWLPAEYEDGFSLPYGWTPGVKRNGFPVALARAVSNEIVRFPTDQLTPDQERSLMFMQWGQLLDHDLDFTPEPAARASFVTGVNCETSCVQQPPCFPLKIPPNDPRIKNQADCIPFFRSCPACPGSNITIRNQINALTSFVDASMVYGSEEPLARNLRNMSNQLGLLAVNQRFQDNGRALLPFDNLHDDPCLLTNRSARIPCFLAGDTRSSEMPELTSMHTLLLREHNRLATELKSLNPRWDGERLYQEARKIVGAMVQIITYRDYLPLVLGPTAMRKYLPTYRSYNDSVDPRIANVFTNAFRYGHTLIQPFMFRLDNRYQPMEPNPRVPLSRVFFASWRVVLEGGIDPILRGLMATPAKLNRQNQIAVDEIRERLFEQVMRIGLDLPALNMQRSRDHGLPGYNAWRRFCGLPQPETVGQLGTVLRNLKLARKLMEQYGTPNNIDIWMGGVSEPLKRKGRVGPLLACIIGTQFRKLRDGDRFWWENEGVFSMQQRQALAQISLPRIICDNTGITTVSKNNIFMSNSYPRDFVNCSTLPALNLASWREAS", "assay": "MPO inhibition screen (TMB oxidation, with or without added tyrosine)", "assay_type": "biochemical", "settings": "in the presence of tyrosine", "experimental": "Methods for the determination of MPO inhibitory activity are disclosed in patent application WO 02/090575. The pharmacological activity of compounds according to the invention was tested in the following screen in which the compounds were either tested alone or in the presence of added tyrosine:\nAssay buffer: 20 mM sodium/potassium phosphate buffer pH 6.5 containing 10 mM taurine and 100 mM NaCl.\nDeveloping reagent: 2 mM 3,3′,5,5′-tetramethylbenzidine (TMB), 200 μM KI, 200 mM acetate buffer pH 5.4 with 20% DMF.\nTo 10 μl of diluted compounds in assay buffer, 40 μl of human MPO (final concentration […]), with or without 20 μM tyrosine (final concentration, if present, 8 μM), was added and the mixture was incubated for 10 minutes at ambient temperature. Then 50 μl of H2O2 (final concentration 100 μM), or assay buffer alone as a control, were added. After incubation for 10 minutes at ambient temperature, the reaction was stopped by adding 10 μl 0.2 mg/ml of catalase (final concentration 18 μg/ml). The reaction mixture was left for an additional 5 minutes before 100 μl of TMB developing reagent was added. The amount of oxidised 3,3′,5,5′-tetramethylbenzidine formed was then measured after about 5 minutes using absorbance spectroscopy at about […]. IC50 values were then determined using standard procedures."}
{"smiles": "CCOC(C)Cn1c(=S)[nH]c(=O)c2[nH]cnc21", "note": "(racemic) [Example 5, 3-(2-Ethoxy-propyl)-2-thioxanthine]", "values": [{"measurement": "IC50", "value": 500, "unit": "nM"}]}
